{"source": "patent US20260199213A1", "about": "“PEPTIDE HAVING ACTIVITY OF IMPROVING STATE OF SKIN, AND USE THEREOF” (CAREGEN CO., LTD., priority 2022, published 2026)", "tested_on": "elastin", "experiment": "Elastin expression by RT-PCR in NIH3T3 cells", "assay_type": "cell-based", "protocol": "In this example, the aim was to confirm the effect of the peptide according to an example on improving endogenous skin aging, including improvement of wrinkles and enhancement of elasticity, etc., by evaluating the expression levels of collagen type 1 (Col1a1), fibronectin, elastin, and hyaluronic acid, which are known components of the dermis.\nSpecifically, NIH3T3 cells were seeded in a 6-well plate at a density of 3×10^5 cells/well and cultured for 24 hours. Next, the cells were washed once with serum-free DMEM media, and 10 μM, 50 μM or 1000 μM of a peptide consisting of an amino acid sequence of SEQ ID NO: 1 was dispensed into 1 mL of the serum-free media, and cultured in a CO2 incubator at 37° C. for 24 hours. Next, the culture was washed twice with PBS, and RNA was isolated from the culture using easy blue (iNtRON, Cat. No.: 17061, Korea). Next, using an RT kit (Enzynomics, Cat. NO.: RT200, Korea), the isolated RNA was reverse transcribed to synthesize the respective cDNA. Next, using the synthesized 1 ug cDNA, primers for Colla1, fibronectin, or elastin, and a PCR kit (Enzynomics, Cat. No.: P581T, Korea), polymerase chain reaction (PCR) was performed. Meanwhile, in this example, an untreated group was used as a control group, and a group to which […] was added was used as a positive control group, the nucleotide sequences of the primers used in this example are shown in Table 2 below.\nIn this example, the aim was to more specifically compare the effects of peptides according to an embodiment on improving intrinsic skin aging. To this end, a peptide consisting of an amino acid sequence of SEQ ID NO: 2, 3, or 4 having a sequence similar to a peptide according to an embodiment was set as a comparison group, and the expression levels of fibronectin and elastin were evaluated and compared in the same manner as in Example 2-1. […]"}
{"substance": "GPRGDP [SEQ ID NO: 1]", "values": [{"measurement": "expression of elastin", "setting": "10 μM, 50 μM or 1000 μM peptide, 24 hours, PCR, vs untreated group", "value": "increased"}, {"measurement": "expression of elastin (Example 2-2)", "setting": "comparison experiment, FIG. 5 and FIG. 6", "value": "increased"}, {"measurement": "elastin expression effect compared to the comparison group", "setting": "vs peptides of SEQ ID NO: 2, 3, or 4 (50 μM, 100 μM)", "value": "superior"}]}
